Test results published in ChEMBL document CHEMBL3407491, “Synthesis, characterization and in vitro photodynamic antimicrobial activity of basic amino acid-porphyrin conjugates” (Eur J Med Chem, 2015).
In brackets after ≈: the same amount, converted by molar mass. Activity calls are given as the source filed them. The rule behind the calls is not given here.

How the values were obtained:
Staphylococcus aureus [1] = assay: Antibacterial activity against methicillin-resistant Staphylococcus aureus incubated in dark for 30 mins measured after 24 hrs; assay type: functional
Staphylococcus aureus [2] = assay: Drug uptake in methicillin-resistant Staphylococcus aureus at 12.5 uM by confocal laser scanning microscopy; assay type: ADME, organism-based; details: in vivo
[3] = Toxicity against human […] cells assessed as cell viability at 3.91 to 62.5 uM under dark conditions by MTT assay; assay type: cell-based; details: read-out: Activity
Pseudomonas aeruginosa [4] = assay: Antibacterial activity against Pseudomonas aeruginosa ATCC 27853 at 0.49 uM to 7.8 uM incubated in dark for 30 mins followed by exposure to light fluences at 650 nm and 6 J/cm2 and then incubated overnight measured after 24 hrs; assay type: functional, organism-based
Staphylococcus aureus [5] = assay: Antibacterial activity against methicillin-resistant Staphylococcus aureus incubated in dark for 30 mins followed by exposure to light fluences at 650 nm and 6 J/cm2 and then incubated overnight measured after 24 hrs; assay type: functional; details: light or radiation study
Pseudomonas aeruginosa [6] = assay: Antibacterial activity against Pseudomonas aeruginosa ATCC 27853 at 3.91 uM to 62.50 uM incubated in dark for 30 mins followed by exposure to light fluences at 650 nm and 6 J/cm2 and then incubated overnight measured after 24 hrs; assay type: functional, organism-based
Escherichia coli [7] = assay: Drug uptake in Escherichia coli ATCC 25922 at 12.5 uM by confocal laser scanning microscopy; assay type: ADME, organism-based; details: in vivo
Staphylococcus aureus [8] = assay: Bactericidal activity against methicillin-resistant Staphylococcus aureus incubated in dark for 30 mins followed by exposure to light fluences at 650 nm and 6 J/cm2 and then incubated overnight followed by further incubation on LB agar plates for another 24 hrs; assay type: functional; details: light or radiation study
[9] = Singlet oxygen generation of the compound exposed to 4.2 mW/cm2 light energy density assessed as singlet oxygen quantum yield measured at 410 nm in 10 seconds intervals of irradiation at 0.2 uM by DPBF scavenger based assay
[10] = Stability in mouse serum assessed as compound remaining after 24 hrs by RP-HPLC method; assay type: ADME; details: read-out: Stability
[11] = Photostability at 2 x 10^-5 mol/L exposed to 4.2 mW/cm2 light energy density assessed as change in absorption spectra after 30 mins post irradiation; assay type: physicochemical; details: 0.5 h, 20 µM
Pseudomonas aeruginosa [12] = assay: Antibacterial activity against Pseudomonas aeruginosa ATCC 27853 incubated in dark for 30 mins and grown for 24 hrs followed by further incubation on LB agar plates for another 24 hrs; assay type: functional
Escherichia coli [13] = assay: Antibacterial activity against Escherichia coli ATCC 25922 assessed as log reduction in bacterial count at 7.81 uM incubated in dark for 30 mins followed by exposure to light fluences at 650 nm and 6 J/cm2 and then incubated overnight measured after 24 hrs; assay type: functional, organism-based
[14] = Toxicity against human […] cells assessed as reduction in cell viability by MTT assay; assay type: cell-based
Pseudomonas aeruginosa [15] = assay: Antibacterial activity against Pseudomonas aeruginosa ATCC 27853 incubated in dark for 30 mins measured after 24 hrs; assay type: functional
[16] = Octanol water partition coefficient, log P of the compound by reverse-phase thin-layer chromatography; assay type: physicochemical
Pseudomonas aeruginosa [17] = assay: Antibacterial activity against Pseudomonas aeruginosa ATCC 27853 assessed as log reduction in bacterial count at 3.5 uM incubated in dark for 30 mins followed by exposure to light fluences at 650 nm and 6 J/cm2 and then incubated overnight measured after 24 hrs; assay type: functional
Staphylococcus aureus [18] = assay: Antibacterial activity against methicillin-resistant Staphylococcus aureus incubated in dark for 30 mins and grown for 24 hrs followed by further incubation on LB agar plates for another 24 hrs; assay type: functional
Pseudomonas aeruginosa [19] = assay: Bactericidal activity against Pseudomonas aeruginosa ATCC 27853 incubated in dark for 30 mins followed by exposure to light fluences at 650 nm and 6 J/cm2 and then incubated overnight followed by further incubation on LB agar plates for another 24 hrs; assay type: functional; details: ATCC 27853, light or radiation study
Pseudomonas aeruginosa [20] = assay: Antibacterial activity against Pseudomonas aeruginosa ATCC 27853 incubated in dark for 30 mins followed by exposure to light fluences at 650 nm and 6 J/cm2 and then incubated overnight measured after 24 hrs; assay type: functional; details: ATCC 27853, light or radiation study
Staphylococcus aureus [21] = assay: Antibacterial activity against methicillin-resistant Staphylococcus aureus at 0.49 uM to 7.8 uM incubated in dark for 30 mins followed by exposure to light fluences at 650 nm and 6 J/cm2 and then incubated overnight measured after 24 hrs; assay type: functional, organism-based
Escherichia coli [22] = assay: Antibacterial activity against Escherichia coli ATCC 25922 assessed as log reduction in bacterial count at 2 uM incubated in dark for 30 mins followed by exposure to light fluences at 650 nm and 6 J/cm2 and then incubated overnight measured after 24 hrs; assay type: functional
Pseudomonas aeruginosa [23] = assay: Antibacterial activity against Pseudomonas aeruginosa ATCC 27853 assessed as log reduction in bacterial count at 7.81 uM incubated in dark for 30 mins followed by exposure to light fluences at 650 nm and 6 J/cm2 and then incubated overnight measured after 24 hrs; assay type: functional, organism-based
Escherichia coli [24] = assay: Antibacterial activity against Escherichia coli ATCC 25922 at 3.91 uM to 62.50 uM incubated in dark for 30 mins followed by exposure to light fluences at 650 nm and 6 J/cm2 and then incubated overnight measured after 24 hrs; assay type: functional, organism-based
Escherichia coli [25] = assay: Bactericidal activity against Escherichia coli ATCC 25922 incubated in dark for 30 mins followed by exposure to light fluences at 650 nm and 6 J/cm2 and then incubated overnight followed by further incubation on LB agar plates for another 24 hrs; assay type: functional; details: ATCC 25922, light or radiation study
[26] = Toxicity against human […] cells irradiated with 6 J/cm2 radiation assessed as cell viability at 7.81 uM by MTT assay; assay type: cell-based; details: read-out: Activity
Escherichia coli [27] = assay: Antibacterial activity against Escherichia coli ATCC 25922 incubated in dark for 30 mins and grown for 24 hrs followed by further incubation on LB agar plates for another 24 hrs; assay type: functional
Pseudomonas aeruginosa [28] = assay: Drug uptake in Pseudomonas aeruginosa ATCC 27853 at 12.5 uM by confocal laser scanning microscopy; assay type: ADME, organism-based; details: in vivo
Staphylococcus aureus [29] = assay: Antibacterial activity against methicillin-resistant Staphylococcus aureus assessed as log reduction in bacterial count at 2 uM incubated in dark for 30 mins followed by exposure to light fluences at 650 nm and 6 J/cm2 and then incubated overnight measured after 24 hrs; assay type: functional
Escherichia coli [30] = assay: Antibacterial activity against Escherichia coli ATCC 25922 at 0.49 uM to 7.8 uM incubated in dark for 30 mins followed by exposure to light fluences at 650 nm and 6 J/cm2 and then incubated overnight measured after 24 hrs; assay type: functional, organism-based
Escherichia coli [31] = assay: Antibacterial activity against Escherichia coli ATCC 25922 incubated in dark for 30 mins measured after 24 hrs; assay type: functional
Escherichia coli [32] = assay: Antibacterial activity against Escherichia coli ATCC 25922 incubated in dark for 30 mins followed by exposure to light fluences at 650 nm and 6 J/cm2 and then incubated overnight measured after 24 hrs; assay type: functional; details: ATCC 25922, light or radiation study
Staphylococcus aureus [33] = assay: Antibacterial activity against methicillin-resistant Staphylococcus aureus assessed as log reduction in bacterial count at 10 uM incubated in dark for 30 mins followed by exposure to light fluences at 650 nm and 6 J/cm2 and then incubated overnight measured after 24 hrs; assay type: functional
Pseudomonas aeruginosa [34] = assay: Antibacterial activity against Pseudomonas aeruginosa ATCC 27853 assessed as log reduction in bacterial count at 10 uM incubated in dark for 30 mins followed by exposure to light fluences at 650 nm and 6 J/cm2 and then incubated overnight measured after 24 hrs; assay type: functional
Escherichia coli [35] = assay: Antibacterial activity against Escherichia coli ATCC 25922 assessed as log reduction in bacterial count at 10 uM incubated in dark for 30 mins followed by exposure to light fluences at 650 nm and 6 J/cm2 and then incubated overnight measured after 24 hrs; assay type: functional

Row | SMILES | MIC (Staphylococcus aureus [1]) | Drug uptake (Staphylococcus aureus [2]) | MIC (Staphylococcus aureus [5]) | Drug uptake (Escherichia coli [7]) | MBC (Staphylococcus aureus [8]) | Activity [9] | Activity [11] | MBC (Pseudomonas aeruginosa [12]) | MIC (Pseudomonas aeruginosa [15]) | logP [16] | MBC (Staphylococcus aureus [18]) | MBC (Pseudomonas aeruginosa [19]) | MIC (Pseudomonas aeruginosa [20]) | MBC (Escherichia coli [25]) | MBC (Escherichia coli [27]) | Drug uptake (Pseudomonas aeruginosa [28]) | MIC (Escherichia coli [31]) | MIC (Escherichia coli [32]) | Log reduction in bacterial count (Staphylococcus aureus [33]) | log reduction in bacterial count (Pseudomonas aeruginosa [34]) | other results
1 | NCCCC[C@H](N)C(=O)Nc1ccc(-c2c3nc(c(-c4ccc(NC(=O)[C@@H](N)CCCCN)cc4)c4ccc([nH]4)c(-c4ccc(NC(=O)[C@@H](N)CCCCN)cc4)c4nc(c(-c5ccc(NC(=O)[C@@H](N)CCCCN)cc5)c5ccc2[nH]5)C=C4)C=C3)cc1 | 62.5 µM (≈ 74.2 µg/mL) | Active | 3.91 µM (≈ 4.64 µg/mL) | Active | 7.81 µM (≈ 9.27 µg/mL) | 0.95 | < 20% | > 500 µM | 250 µM (≈ 297 µg/mL) | 0.9 | 125 µM (≈ 148 µg/mL) | 15.6 µM (≈ 18.5 µg/mL) | 7.81 µM (≈ 9.27 µg/mL) | 3.91 µM (≈ 4.64 µg/mL) | 125 µM (≈ 148 µg/mL) | Active | 62.5 µM (≈ 74.2 µg/mL) | 1.95 µM (≈ 2.32 µg/mL) |  |  | viability at 62.5 µM [3]: > 90%; Activity (Pseudomonas aeruginosa [4]): Dose-dependent effect; Activity (Pseudomonas aeruginosa [6]): Dose-dependent effect; remaining at 24 h [10]: 85%; Activity (Escherichia coli [13]): Active; Activity [14]: Dose-dependent effect; FC (Pseudomonas aeruginosa [17]): 3; Activity (Staphylococcus aureus [21]): Dose-dependent effect; FC (Escherichia coli [22]): 3; Activity (Pseudomonas aeruginosa [23]): Active; Activity (Escherichia coli [24]): Dose-dependent effect; viability at 7.81 µM [26]: > 85%; FC (Staphylococcus aureus [29]): 3; Activity (Escherichia coli [30]): Dose-dependent effect
2 | NCCCC[C@H](N)C(=O)Nc1ccc(-c2c3nc(c(-c4ccc(NC(=O)[C@@H](N)CCCCN)cc4)c4ccc([nH]4)c(-c4ccccc4)c4nc(c(-c5ccccc5)c5ccc2[nH]5)C=C4)C=C3)cc1 | 62.5 µM (≈ 56.3 µg/mL) |  | 31.2 µM (≈ 28.2 µg/mL) |  | 62.5 µM (≈ 56.3 µg/mL) | 0.65 | < 20% | 125 µM (≈ 113 µg/mL) | 62.5 µM (≈ 56.3 µg/mL) | 1.39 | 125 µM (≈ 113 µg/mL) | 62.5 µM (≈ 56.3 µg/mL) | 31.2 µM (≈ 28.2 µg/mL) | 62.5 µM (≈ 56.3 µg/mL) | 250 µM (≈ 225 µg/mL) |  | 125 µM (≈ 113 µg/mL) | 31.2 µM (≈ 28.2 µg/mL) | 3 | >5 | log reduction in bacterial count (Escherichia coli [35]): 2
3 | NCCCC[C@H](N)C(=O)Nc1ccc(-c2c3nc(c(-c4ccccc4)c4ccc([nH]4)c(-c4ccccc4)c4nc(c(-c5ccccc5)c5ccc2[nH]5)C=C4)C=C3)cc1 | > 500 µM | Not Active | 500 µM (≈ 379 µg/mL) | Not Active | > 500 µM | 0.83 | < 20% | > 500 µM | 500 µM (≈ 379 µg/mL) | 1.69 | > 500 µM | 500 µM (≈ 379 µg/mL) | 250 µM (≈ 189 µg/mL) | > 500 µM | > 500 µM | Not Active | > 500 µM | 500 µM (≈ 379 µg/mL) |  |  | 
4 | NCCCC[C@H](N)C(=O)Nc1ccc(-c2c3nc(c(-c4ccc(NC(=O)[C@@H](N)CCCCN)cc4)c4ccc([nH]4)c(-c4ccc(NC(=O)[C@@H](N)CCCCN)cc4)c4nc(c(-c5ccc(N)cc5)c5ccc2[nH]5)C=C4)C=C3)cc1 | 125 µM (≈ 132 µg/mL) |  | 31.2 µM (≈ 33.1 µg/mL) |  | 62.5 µM (≈ 66.2 µg/mL) | 0.73 | < 20% | > 500 µM | 250 µM (≈ 265 µg/mL) | 1.21 | 500 µM (≈ 530 µg/mL) | 62.5 µM (≈ 66.2 µg/mL) | 31.2 µM (≈ 33.1 µg/mL) | 31.2 µM (≈ 33.1 µg/mL) | > 500 µM |  | 125 µM (≈ 132 µg/mL) | 15.6 µM (≈ 16.5 µg/mL) | 3 | 1 | log reduction in bacterial count (Escherichia coli [35]): 3
